# Data taken from ChEMBL document CHEMBL1143865, “Pyrazinoindolone inhibitors of MAPKAP-K2” (Bioorg Med Chem Lett, 2008).
# pIC50: −log10 of the molar value. Calls of active or inactive are those of the source. The calls are words filed in the database; no cut-off is given here.
# Columns and labels:
# THP-1 = assay: Inhibition of LPS-induced TNFalpha production in human THP1 cells
# [1] = biological target: MAP kinase-activated protein kinase 2 (Homo sapiens, UniProt P49137)
# [2] = Solubility at pH 7.4; assay type: physicochemical; settings: buffer
# [3] = Drug level in mouse plasma at 60 mg/kg, po after 90 mins; assay type: ADME, organism-based; design: dose 60 mg/kg, route oral
# Mus musculus [4] = assay: Inhibition of LPS-stimulated TNFalpha production in mouse at 60 mg/kg, po; assay type: functional, organism-based; design: dose 60 mg/kg
# [5] = Oral bioavailability in BALB/c mouse at 1.0 mg/kg; assay type: ADME, organism-based; settings: in vivo
# [6] = AUC (0 to infinity) in BALB/c mouse at 0.5 mg/kg, iv; assay type: ADME, organism-based; design: time infinity, dose 0.5 mg/kg, route intravenous; settings: plasma
# [7] = Mean retention time in BALB/c mouse at 0.5 mg/kg, iv; assay type: ADME, organism-based; design: dose 0.5 mg/kg, route intravenous; settings: in vivo
# [8] = AUC (0 to infinity) in BALB/c mouse at 1.0 mg/kg, po; assay type: ADME, organism-based; design: time infinity, dose 1 mg/kg, route oral; settings: plasma
# [9] = Cmax in BALB/c mouse at 1.0 mg/kg, po; assay type: ADME, organism-based; design: dose 1 mg/kg, route oral; settings: in vivo
# Mus musculus [10] = assay: Clearance in BALB/c mouse at 0.5 mg/kg, iv expressed as %Q; assay type: ADME, organism-based; design: dose 0.5 mg/kg, route intravenous; settings: in vivo
# [11] = biological target: Dual specificity protein kinase CLK1 (Homo sapiens, UniProt P49759); assay: Inhibition of CLK1
# [12] = biological target: Serine/threonine-protein kinase Chk2 (Homo sapiens) (UniProt O96017); assay: Inhibition of CHK2 at 10 uM
# [13] = Inhibition of AMPK at 10 uM
# [14] = biological target: Mitogen-activated protein kinase 1 (Homo sapiens, UniProt P28482); assay: Inhibition of Erk2
# [15] = biological target: T1, Serine/threonine-protein kinase 3 (Homo sapiens) (UniProt Q13188); assay: Inhibition of MST2 at 10 uM
# T1 sequence (whole entry): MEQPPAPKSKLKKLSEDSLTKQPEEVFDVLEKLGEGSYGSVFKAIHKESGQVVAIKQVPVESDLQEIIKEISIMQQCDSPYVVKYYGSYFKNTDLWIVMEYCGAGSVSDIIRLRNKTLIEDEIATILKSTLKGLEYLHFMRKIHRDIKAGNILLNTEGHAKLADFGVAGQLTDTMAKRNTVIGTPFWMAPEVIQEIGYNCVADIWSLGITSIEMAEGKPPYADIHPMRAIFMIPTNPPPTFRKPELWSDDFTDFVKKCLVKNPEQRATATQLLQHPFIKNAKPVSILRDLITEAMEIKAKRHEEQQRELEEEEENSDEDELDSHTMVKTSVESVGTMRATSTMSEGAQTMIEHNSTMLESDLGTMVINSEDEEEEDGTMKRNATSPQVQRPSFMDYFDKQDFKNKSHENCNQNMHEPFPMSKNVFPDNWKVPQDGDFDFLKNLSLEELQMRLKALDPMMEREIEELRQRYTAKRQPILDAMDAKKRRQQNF
# [16] = biological target: Rho-associated protein kinase 2 (Homo sapiens) (UniProt O75116); assay: Inhibition of ROCK2 at 10 uM
# [17] = biological target: T2, MAP kinase-activated protein kinase 5 (Homo sapiens) (UniProt Q8IW41); assay: Inhibition of PRAK at 10 uM
# T2 sequence (whole entry): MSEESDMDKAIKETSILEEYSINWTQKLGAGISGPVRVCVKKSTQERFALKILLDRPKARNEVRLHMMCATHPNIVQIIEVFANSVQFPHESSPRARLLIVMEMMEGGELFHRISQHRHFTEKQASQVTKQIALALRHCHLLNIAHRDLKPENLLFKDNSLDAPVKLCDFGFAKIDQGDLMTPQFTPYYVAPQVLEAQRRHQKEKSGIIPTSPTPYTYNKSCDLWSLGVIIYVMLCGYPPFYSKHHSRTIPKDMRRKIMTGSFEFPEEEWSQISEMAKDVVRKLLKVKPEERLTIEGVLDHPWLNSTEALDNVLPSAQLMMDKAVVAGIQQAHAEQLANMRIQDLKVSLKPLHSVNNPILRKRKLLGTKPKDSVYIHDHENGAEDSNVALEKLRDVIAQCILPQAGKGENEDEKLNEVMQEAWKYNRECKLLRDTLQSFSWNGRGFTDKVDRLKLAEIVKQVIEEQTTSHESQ
# [18] = biological target: 3-phosphoinositide-dependent protein kinase 1 (Homo sapiens) (UniProt O15530); assay: Inhibition of PDK1 at 10 uM
# [19] = biological target: Dual specificity tyrosine-phosphorylation-regulated kinase 1A (Homo sapiens) (UniProt Q13627); assay: Inhibition of DYRK1A at 10 uM
# [20] = biological target: T3, Mitogen-activated protein kinase 15 (Homo sapiens) (UniProt Q8TD08); assay: Inhibition of ERK8 at 10 uM
# T3 sequence (whole entry): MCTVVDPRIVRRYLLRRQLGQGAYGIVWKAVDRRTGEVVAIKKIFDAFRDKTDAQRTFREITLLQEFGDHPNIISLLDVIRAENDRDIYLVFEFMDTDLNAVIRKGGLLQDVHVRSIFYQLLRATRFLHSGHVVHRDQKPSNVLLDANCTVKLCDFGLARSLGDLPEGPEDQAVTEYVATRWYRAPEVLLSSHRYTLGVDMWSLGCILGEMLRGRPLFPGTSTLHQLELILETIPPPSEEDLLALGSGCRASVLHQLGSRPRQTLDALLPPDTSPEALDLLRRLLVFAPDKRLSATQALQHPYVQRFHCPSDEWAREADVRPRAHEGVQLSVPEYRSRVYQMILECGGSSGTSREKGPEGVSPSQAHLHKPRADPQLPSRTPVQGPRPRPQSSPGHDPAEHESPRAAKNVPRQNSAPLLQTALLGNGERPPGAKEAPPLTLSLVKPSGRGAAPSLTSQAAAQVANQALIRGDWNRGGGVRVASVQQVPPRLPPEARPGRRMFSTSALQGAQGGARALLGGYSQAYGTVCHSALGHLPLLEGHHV
# [21] = Inhibition of MAPKAP-K1
# [22] = biological target: T4, Lymphokine-activated killer T-cell-originated protein kinase (Homo sapiens) (UniProt Q96KB5); assay: Inhibition of PBK at 10 uM
# T4 sequence (whole entry): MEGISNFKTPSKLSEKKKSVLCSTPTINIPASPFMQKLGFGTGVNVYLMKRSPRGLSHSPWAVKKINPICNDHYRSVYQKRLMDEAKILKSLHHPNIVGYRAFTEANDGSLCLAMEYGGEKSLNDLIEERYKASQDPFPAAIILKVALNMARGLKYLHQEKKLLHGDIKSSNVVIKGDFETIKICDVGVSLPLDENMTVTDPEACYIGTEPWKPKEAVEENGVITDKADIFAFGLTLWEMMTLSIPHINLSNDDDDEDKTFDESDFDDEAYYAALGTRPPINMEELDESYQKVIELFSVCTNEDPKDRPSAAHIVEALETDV
# [23] = biological target: Mitogen-activated protein kinase kinase kinase 14 (Homo sapiens, UniProt Q99558); assay: Inhibition of NIK
# [24] = biological target: SRSF protein kinase 1 (Homo sapiens) (UniProt Q96SB4); assay: Inhibition of SRPK1 at 10 uM
# [25] = biological target: Glycogen synthase kinase-3 beta (Homo sapiens, UniProt P49841); assay: Inhibition of GSK3-beta
# [26] = Inhibition of MNK2alpha at 10 uM
# Sequence of MAP kinase-activated protein kinase 2 (P49137 whole entry): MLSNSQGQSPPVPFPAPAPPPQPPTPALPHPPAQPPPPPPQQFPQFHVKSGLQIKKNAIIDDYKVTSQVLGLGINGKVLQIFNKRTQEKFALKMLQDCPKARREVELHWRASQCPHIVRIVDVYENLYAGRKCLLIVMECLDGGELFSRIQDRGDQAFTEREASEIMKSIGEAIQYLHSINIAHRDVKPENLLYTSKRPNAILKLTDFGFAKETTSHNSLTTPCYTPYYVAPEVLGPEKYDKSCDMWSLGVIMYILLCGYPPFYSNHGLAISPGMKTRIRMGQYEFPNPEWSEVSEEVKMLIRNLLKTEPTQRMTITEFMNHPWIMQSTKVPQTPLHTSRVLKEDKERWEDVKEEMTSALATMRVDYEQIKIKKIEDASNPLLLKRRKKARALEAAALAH
# Sequence of Mitogen-activated protein kinase kinase kinase 14 (Q99558 whole entry): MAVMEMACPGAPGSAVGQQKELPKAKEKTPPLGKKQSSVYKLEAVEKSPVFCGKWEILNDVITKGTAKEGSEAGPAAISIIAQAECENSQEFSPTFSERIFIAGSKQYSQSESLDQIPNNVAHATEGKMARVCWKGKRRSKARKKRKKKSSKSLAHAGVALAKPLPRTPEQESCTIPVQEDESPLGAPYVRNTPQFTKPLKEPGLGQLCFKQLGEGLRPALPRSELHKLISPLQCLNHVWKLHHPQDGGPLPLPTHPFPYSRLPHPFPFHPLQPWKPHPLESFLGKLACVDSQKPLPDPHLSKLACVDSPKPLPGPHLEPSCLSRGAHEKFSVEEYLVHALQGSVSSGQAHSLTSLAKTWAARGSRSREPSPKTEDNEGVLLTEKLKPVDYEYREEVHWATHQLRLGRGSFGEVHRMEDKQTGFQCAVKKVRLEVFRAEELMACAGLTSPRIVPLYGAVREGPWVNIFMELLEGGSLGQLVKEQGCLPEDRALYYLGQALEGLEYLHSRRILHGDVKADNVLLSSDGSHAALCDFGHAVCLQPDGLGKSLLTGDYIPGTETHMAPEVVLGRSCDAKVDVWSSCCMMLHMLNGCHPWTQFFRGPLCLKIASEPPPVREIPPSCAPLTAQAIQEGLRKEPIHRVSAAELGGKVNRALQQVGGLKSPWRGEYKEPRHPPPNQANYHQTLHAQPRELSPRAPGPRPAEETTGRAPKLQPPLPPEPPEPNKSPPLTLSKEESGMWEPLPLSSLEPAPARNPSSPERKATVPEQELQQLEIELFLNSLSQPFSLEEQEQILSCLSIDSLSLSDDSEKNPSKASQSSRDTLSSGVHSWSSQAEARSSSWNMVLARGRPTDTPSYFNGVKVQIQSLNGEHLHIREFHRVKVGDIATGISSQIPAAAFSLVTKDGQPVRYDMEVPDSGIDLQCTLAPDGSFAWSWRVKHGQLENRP
# Sequence of 3-phosphoinositide-dependent protein kinase 1 (Homo sapiens) (O15530 whole entry, looked up): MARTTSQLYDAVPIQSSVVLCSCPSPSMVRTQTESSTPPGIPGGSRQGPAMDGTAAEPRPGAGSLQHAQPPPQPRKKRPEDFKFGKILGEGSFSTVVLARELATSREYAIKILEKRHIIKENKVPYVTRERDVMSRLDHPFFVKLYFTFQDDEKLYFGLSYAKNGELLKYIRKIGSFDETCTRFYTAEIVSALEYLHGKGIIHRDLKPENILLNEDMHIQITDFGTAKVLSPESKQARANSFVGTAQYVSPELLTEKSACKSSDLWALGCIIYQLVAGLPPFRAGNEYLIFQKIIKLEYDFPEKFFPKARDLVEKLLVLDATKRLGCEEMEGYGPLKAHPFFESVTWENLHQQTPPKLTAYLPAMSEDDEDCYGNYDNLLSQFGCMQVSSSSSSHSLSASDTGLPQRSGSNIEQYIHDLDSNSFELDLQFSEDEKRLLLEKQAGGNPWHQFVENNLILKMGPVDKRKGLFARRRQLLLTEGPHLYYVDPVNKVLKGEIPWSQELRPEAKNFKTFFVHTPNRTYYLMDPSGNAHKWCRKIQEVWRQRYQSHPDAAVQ
# Sequence of Glycogen synthase kinase-3 beta (P49841 whole entry): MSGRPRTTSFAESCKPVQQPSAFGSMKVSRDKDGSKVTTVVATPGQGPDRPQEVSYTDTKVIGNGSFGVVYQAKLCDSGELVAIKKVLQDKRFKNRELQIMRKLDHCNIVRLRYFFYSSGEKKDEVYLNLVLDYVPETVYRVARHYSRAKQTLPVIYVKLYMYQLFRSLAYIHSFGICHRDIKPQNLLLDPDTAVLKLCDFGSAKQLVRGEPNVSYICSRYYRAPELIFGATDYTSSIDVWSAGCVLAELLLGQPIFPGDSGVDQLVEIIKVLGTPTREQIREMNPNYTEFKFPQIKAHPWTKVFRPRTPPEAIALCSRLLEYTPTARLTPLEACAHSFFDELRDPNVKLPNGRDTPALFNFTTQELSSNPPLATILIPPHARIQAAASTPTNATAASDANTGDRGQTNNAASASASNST
# Sequence of Mitogen-activated protein kinase 1 (P28482 whole entry): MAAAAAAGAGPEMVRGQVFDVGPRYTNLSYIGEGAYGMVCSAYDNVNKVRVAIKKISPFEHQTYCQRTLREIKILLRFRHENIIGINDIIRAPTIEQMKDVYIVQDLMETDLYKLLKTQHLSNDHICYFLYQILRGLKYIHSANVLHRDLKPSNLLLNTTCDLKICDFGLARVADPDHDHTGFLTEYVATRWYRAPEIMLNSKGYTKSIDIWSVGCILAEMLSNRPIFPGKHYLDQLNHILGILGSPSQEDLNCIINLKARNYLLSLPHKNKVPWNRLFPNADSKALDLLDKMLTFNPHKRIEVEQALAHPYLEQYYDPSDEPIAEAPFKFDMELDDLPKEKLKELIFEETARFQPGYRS
# Sequence of SRSF protein kinase 1 (Homo sapiens) (Q96SB4 whole entry): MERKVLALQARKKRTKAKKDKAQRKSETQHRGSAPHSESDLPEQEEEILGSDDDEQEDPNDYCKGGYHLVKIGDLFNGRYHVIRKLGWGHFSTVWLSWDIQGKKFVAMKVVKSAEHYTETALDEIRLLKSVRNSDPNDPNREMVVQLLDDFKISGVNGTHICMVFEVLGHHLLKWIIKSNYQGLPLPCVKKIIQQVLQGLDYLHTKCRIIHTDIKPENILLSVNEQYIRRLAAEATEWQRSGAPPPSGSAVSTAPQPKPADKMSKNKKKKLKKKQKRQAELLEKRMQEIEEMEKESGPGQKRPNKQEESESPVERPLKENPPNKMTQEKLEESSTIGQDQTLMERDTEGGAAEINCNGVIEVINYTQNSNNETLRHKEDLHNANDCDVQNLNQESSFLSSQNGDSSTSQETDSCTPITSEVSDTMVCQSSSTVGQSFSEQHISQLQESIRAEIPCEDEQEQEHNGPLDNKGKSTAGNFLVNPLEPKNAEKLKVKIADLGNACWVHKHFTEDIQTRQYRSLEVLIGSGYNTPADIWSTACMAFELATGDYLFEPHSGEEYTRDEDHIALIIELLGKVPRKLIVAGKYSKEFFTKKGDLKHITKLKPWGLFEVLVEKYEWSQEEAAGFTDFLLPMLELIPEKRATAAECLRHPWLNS
# Sequence of Serine/threonine-protein kinase Chk2 (Homo sapiens) (O96017 whole entry): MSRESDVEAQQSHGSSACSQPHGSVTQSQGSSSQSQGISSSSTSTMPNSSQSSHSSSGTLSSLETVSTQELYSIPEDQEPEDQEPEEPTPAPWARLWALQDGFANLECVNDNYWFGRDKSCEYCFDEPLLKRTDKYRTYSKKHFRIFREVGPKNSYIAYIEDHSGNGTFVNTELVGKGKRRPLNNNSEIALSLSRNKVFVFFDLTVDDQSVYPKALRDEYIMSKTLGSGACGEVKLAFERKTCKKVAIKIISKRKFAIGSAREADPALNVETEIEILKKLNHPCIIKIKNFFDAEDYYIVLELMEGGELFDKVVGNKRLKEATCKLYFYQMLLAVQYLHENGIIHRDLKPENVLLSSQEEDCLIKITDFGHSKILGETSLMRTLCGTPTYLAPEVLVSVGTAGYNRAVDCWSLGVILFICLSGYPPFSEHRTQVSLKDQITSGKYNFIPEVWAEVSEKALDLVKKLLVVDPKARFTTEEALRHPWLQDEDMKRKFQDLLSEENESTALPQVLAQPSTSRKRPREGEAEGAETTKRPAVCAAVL
# Sequence of Dual specificity protein kinase CLK1 (P49759 whole entry): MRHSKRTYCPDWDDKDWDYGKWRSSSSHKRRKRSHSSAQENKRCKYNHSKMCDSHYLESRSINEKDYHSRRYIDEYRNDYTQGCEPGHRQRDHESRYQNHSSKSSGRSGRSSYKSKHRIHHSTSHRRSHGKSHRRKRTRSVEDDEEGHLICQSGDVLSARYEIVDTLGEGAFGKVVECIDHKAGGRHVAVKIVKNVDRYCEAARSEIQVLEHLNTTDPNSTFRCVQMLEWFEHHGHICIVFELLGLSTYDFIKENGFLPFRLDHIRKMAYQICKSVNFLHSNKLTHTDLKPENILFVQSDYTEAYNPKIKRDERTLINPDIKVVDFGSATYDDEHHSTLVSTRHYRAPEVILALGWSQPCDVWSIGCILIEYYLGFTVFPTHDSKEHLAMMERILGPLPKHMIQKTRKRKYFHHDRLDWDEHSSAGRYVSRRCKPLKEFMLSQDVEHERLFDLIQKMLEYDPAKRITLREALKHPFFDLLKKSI
smiles,measurement,setting,value
CN1CCC(NC(=O)c2csc(NC(=O)c3ccc4cc5n(c4c3)C3(CCC3)CNC5=O)n2)CC1,pIC50,THP-1,5.77
CC1(C)CNC(=O)c2cc3ccc(C(=O)Nc4nc(C(=O)NC5CCCCC5)cs4)cc3n21,pIC50,[1],7.72
same,pIC50,THP-1,6.00
CC1CNC(=O)c2cc3ccc(C(=O)Nc4nc(C(=O)NC5CCN(CC(C)(C)C)CC5)cs4)cc3n21 (stereo unspecified),solubility,[2],> 30 µg/mL
same,pIC50,THP-1,6.13
same,concentration at 1.5 h,[3],690 nM
same,Activity,Mus musculus [4],inactive
CC(C)(C)CN1CCC(NC(=O)c2csc(NC(=O)c3ccc4cc5n(c4c3)C(C)(C)CNC5=O)n2)CC1,pIC50,THP-1,6.37
CC(C)CN1CCC(NC(=O)c2csc(NC(=O)c3ccc4cc5n(c4c3)C(C)CNC5=O)n2)CC1 (stereo unspecified),solubility,[2],> 30 µg/mL
same,pIC50,THP-1,5.78
O=C(Nc1nc(C(=O)NC2CCN(Cc3ccccc3)CC2)cs1)c1ccc2cc3n(c2c1)C1(CCC1)CNC3=O,pIC50,THP-1,6.28
CC1CNC(=O)c2cc3ccc(C(=O)Nc4nc(C(=O)NC5CCCCC5)cs4)cc3n21 (stereo unspecified),solubility,[2],< 0.1 µg/mL
same,pIC50,[1],7.70
same,pIC50,THP-1,5.85
same,bioavailability,[5],11%
same,AUC(0-inf),[6],535 ng·h/mL
same,MRT,[7],2 h
same,AUC(0-inf),[8],115 ng·h/mL
same,Cmax,[9],80 nM
same,CL(%Q),Mus musculus [10],18%
CC1CNC(=O)c2[nH]c3ccc(C(=O)Nc4nc(C(=O)NC5CCCCC5)cs4)cc3c21 (stereo unspecified),solubility,[2],< 0.1 µg/mL
same,bioavailability,[5],8%
same,AUC(0-inf),[6],525 ng·h/mL
same,MRT,[7],0.8 h
same,AUC(0-inf),[8],88 ng·h/mL
same,Cmax,[9],60 nM
same,CL(%Q),Mus musculus [10],18%
CN1CCC(NC(=O)c2csc(NC(=O)c3ccc4cc5n(c4c3)C(C)(C)CNC5=O)n2)CC1,pIC50,THP-1,5.62
CC1CNC(=O)c2[nH]c3ccc(C(=O)Nc4nc(C(=O)NC5CCN(C)CC5)cs4)cc3c21 (stereo unspecified),pIC50,THP-1,< 5.30
CC1CNC(=O)c2cc3ccc(C(=O)Nc4nc(C(=O)NC5CCN(C)CC5)cs4)cc3n21 (stereo unspecified),pIC50,THP-1,< 5.30
CC1(C)CNC(=O)c2cc3ccc(C(=O)Nc4nc(C(=O)NC5CCN(Cc6ccccc6)CC5)cs4)cc3n21,pIC50,THP-1,6.05
CC1CNC(=O)c2cc3ccc(C(=O)Nc4nc(C(=O)NCC(C)(C)C)cs4)cc3n21 (stereo unspecified),pIC50,[1],7.34
same,pIC50,THP-1,5.57
CC(C)(C)CN1CCC(NC(=O)c2csc(NC(=O)c3ccc4cc5n(c4c3)C3(CCC3)CNC5=O)n2)CC1,solubility,[2],> 96 µg/mL
same,pIC50,[11],7.03
same,inhibition,[12],84%
same,inhibition,[13],98%
same,pIC50,[14],< 5.52
same,pIC50,THP-1,6.52
same,inhibition,[15],86%
same,inhibition,[16],63%
same,bioavailability,[5],> 100%
same,inhibition,[17],98%
same,AUC(0-inf),[6],165 ng·h/mL
same,inhibition,[18],92%
same,MRT,[7],6.1 h
same,inhibition,[19],94%
same,AUC(0-inf),[8],446 ng·h/mL
same,inhibition,[20],82%
same,pIC50,[21],7.60
same,inhibition,[22],75%
same,Cmax,[9],60 nM
same,pIC50,[23],6.32
same,inhibition,[24],60%
same,CL(%Q),Mus musculus [10],30%
same,pIC50,[25],6.04
same,inhibition,[26],80%
CCN1CCC(NC(=O)c2csc(NC(=O)c3ccc4cc5n(c4c3)C(C)CNC5=O)n2)CC1 (stereo unspecified),solubility,[2],> 30 µg/mL
same,pIC50,[1],8.15
same,pIC50,THP-1,5.05
CC1CCC(NC(=O)c2csc(NC(=O)c3ccc4cc5n(c4c3)C(C)CNC5=O)n2)CC1 (stereo unspecified),pIC50,[1],7.35
same,pIC50,THP-1,5.74
CC1CNC(=O)c2cc3ccc(C(=O)Nc4nc(C(=O)NC5CCOCC5)cs4)cc3n21 (stereo unspecified),pIC50,[1],7.92
same,pIC50,THP-1,5.24
CC1CNC(=O)c2cc3ccc(C(=O)Nc4nc(C(=O)NC5CCN(Cc6ccccc6)CC5)cs4)cc3n21 (stereo unspecified),solubility,[2],> 30 µg/mL
same,pIC50,THP-1,5.80
